Like-named read-outs stand apart in the source and are kept apart here.
Legend:
[1] = Oral exposure and tissue distribution in rats; type: in vivo, male Sprague Dawley rats; conditions: rat, oral 10 mg/kg; for Cmax: male, Sprague Dawley, plasma, read-out: Plasma Cmax (maximum plasma concentration)
Description: The circulating plasma levels and tissue distribution of certain compounds were determined following oral administration of compound (10 mg/kg) to male Sprague Dawley rats. Rats (n=3 per group) were culled at 1, 4 and 6 hours post dosing and trunk blood and tissues (liver, adipose and brain) excised. Blood samples at 30 minutes and 2 hours post dosing were taken by tail nick from the 4 hour and 6 hour rats respectively.
Compound was triple extracted from plasma (prepared from blood by a high speed centrifugation step) spiked with 1 μg of a standard compound using ethyl acetate. Extracts were dried under nitrogen and re-suspended in 60% methanol/40% ammonium acetate (5 mM).
A known weight of tissue was homogenized in 3 volumes Krebs buffer. Compound was triple extracted with ethyl acetate from the supernatant of a low speed spin spiked with 1 μg of a standard compound. Extracts were dried under nitrogen and re-suspended in 60% methanol/40% ammonium acetate (5 mM).
(§1) Samples from plasma and tissue were analyzed by TSQ Quantum Discovery Tandem Mass Spectrometer and Surveyor Liquid Chromatogram (Thermo, Hemel-Hempstead, UK). 10 μL of each sample was injected in a mobile phase consisting of 60%:40% methanol:5 mM ammonium acetate at a flow rate of 0.5 mL/minute. The column used was a BDS hypersil, C18, 50×2.1 mm with a 5 μm particle size.
(§2) Each compound was tuned with a spray voltage of 3000 V and a capillary temperature of 300° C. and values for tube lens, CID and product ions were determined.
The peak area for each compound and for the internal standard was determined and the concentration of compound per gram of tissue or mL of plasma was calculated by comparison of the peak area ratio to a standard curve.

[2] = In vitro human liver microsomal stability assay; type: in vitro ADME; conditions: human liver microsomes
Description: To predict in vivo metabolism of compounds, the stability of compounds incubated with human liver microsomes in vitro was determined. Human liver microsome preparations were stored at −80° C. and thawed on ice prior to use. The thawed microsomes were diluted to a concentration of 2 mg/mL in 50 mM sodium phosphate, pH 7.4. Reference and test compounds were prepared as 10 mM stocks in 100% DMSO and diluted to 1 mM in acetonitrile before use. Each compound was tested in triplicate as follows:
4 μL of test or reference compound was added to a well of a 24-well microplate and 0.5 mL of 4 mM NADPH added. The plate was then transferred to a shaker for 10 minutes at room temperature. 30 μL of the compound/NADPH solution was transferred to the well of a 96-well microplate and incubated at 37° C. for 5 minutes. 30 μL of human liver microsomes (pre-incubated at 37° C. for 5 minutes) was added to the well containing the compound/NADPH solution and the plate incubated for the selected period of time (typically 0 or 30 minutes). The reaction was stopped by adding 60 μL of ice cold […] trichloroacetic acid. The plate was centrifuged at 1000 rpm for 5 minutes at room temperature and the supernatant transferred to the well of a new 96-well V-bottomed microplate for mass spectrometric analysis.
as §1, with “Samples” for “Samples from plasma and tissue”
as §2
The peak area for each compound was measured in triplicate for the 0 and 30 minute samples and the average of each was reported. The percentage remaining after 30 minutes was calculated as the average peak area of the sample after 30 minutes divided by the average peak area at 0 minutes. The RSD was 10% or lower for each compound.

[3] = molecular target: T1, human 11β-HSD2 (Homo sapiens, UniProt P80365); experiment: Cellular in vitro 11β-HSD2 enzyme inhibition assay (CHO cells); type: cell-based; conditions: CHO cells transfected with human 11β-HSD2
T1 construct: CHO cells stably transfected with the full-length gene coding for human 11β-HSD2 were used; expressed in transfected cells; host or cells: CHO (stably transfected)
T1 sequence (P80365 1-405): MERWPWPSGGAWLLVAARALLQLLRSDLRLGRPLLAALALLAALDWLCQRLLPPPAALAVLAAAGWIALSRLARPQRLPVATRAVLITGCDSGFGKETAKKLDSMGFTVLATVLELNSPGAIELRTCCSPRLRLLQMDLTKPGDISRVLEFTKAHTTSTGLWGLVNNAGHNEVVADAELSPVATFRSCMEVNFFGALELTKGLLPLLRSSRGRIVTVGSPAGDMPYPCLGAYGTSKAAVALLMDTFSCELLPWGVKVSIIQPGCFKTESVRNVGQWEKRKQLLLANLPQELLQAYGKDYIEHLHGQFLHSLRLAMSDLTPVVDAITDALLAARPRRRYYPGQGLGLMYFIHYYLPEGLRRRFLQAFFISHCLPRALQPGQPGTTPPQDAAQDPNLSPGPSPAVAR
Description: For measurement of inhibition of 11β-HSD2, CHO cells stably transfected with the full-length gene coding for human 11β-HSD2 were used. Assays were carried out in 96-well microplates containing 1×10^5 cells/well. Controls and compounds were plated as above, so that the final DMSO concentration in each well was 1%. To initiate the assay, 90 μL of a solution of HAMS F-12 medium containing 1% glutamine, 1% penicillin and streptomycin, and 22 nM tritiated cortisol was added to each well of the assay plate. The plate was then incubated in 5% CO2, 95% O2 at 37° C. for 16 hours.
The assay solutions were transferred to glass tubes and […] added to each tube. Each tube was vortexed thoroughly and the upper layer containing the tritiated steroid transferred to a fresh glass tube. The solvent was evaporated by placing the tubes in a heating block at 65° C. under a stream of nitrogen gas. 20 μL ethanol was added to each of the dried samples and vortexed briefly. Each sample was applied to a silica TLC plate and the plate dried. The plate was placed vertically in a glass tank containing 92% chloroform: 8% ethanol and the solvent allowed to rise up the plate. The plate was dried, placed in an imaging cassette, and overlayed with a tritium imaging plate for 1-2 days. The amount of enzyme inhibition in each sample was determined by measuring the intensity of the substrate and product spots using a phospho-imager. IC50 values for inhibitors were determined as described above for 11β-HSD1.

[4] = molecular target: T2, human 11β-HSD1 (Homo sapiens, UniProt P28845); experiment: Cellular in vitro 11β-HSD1 enzyme inhibition assay (SPA, HEK293/11β-HSD1 cells); type: cell-based
T2 construct: stably transfected with a construct containing the full-length gene coding for the human 11β-HSD1 enzyme; expressed in transfected cells; host or cells: HEK293 (stably transfected, HEK293/11β-HSD1)
T2 sequence (P28845 whole entry): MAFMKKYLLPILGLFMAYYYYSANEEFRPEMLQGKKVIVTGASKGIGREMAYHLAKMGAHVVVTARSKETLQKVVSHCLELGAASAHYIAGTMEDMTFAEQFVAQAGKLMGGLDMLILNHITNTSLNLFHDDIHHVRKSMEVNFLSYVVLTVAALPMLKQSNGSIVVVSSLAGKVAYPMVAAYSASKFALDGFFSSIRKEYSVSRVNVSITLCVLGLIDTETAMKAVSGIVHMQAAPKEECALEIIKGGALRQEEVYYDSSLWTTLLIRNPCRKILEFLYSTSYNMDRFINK
Description: Compounds were assessed by a Scintillation Proximity Assay (SPA) performed according to the following protocol:
HEK293 cells were stably transfected with a construct containing the full-length gene coding for the human 11β-HSD1 enzyme to create HEK293/11β-HSD1 cells. Cells were routinely cultured in DMEM containing 10% calf foetal serum, 1% glutamine, and 1% penicillin and streptomycin. Prior to assay, cells were plated at 2×10^4 cells/well in 96-well poly-D-Lys coated flat-bottomed microplates and incubated in 5% CO2, 95% O2 at 37° C. for 24 hours. The media in each well was removed immediately before assay.
Compounds to be tested were dissolved in DMSO at 10 mM and serially diluted into water containing 10% DMSO. Diluted compounds at a volume of 10 μL were added to wells of a 96-well V-bottomed microplate. A solution of DMEM, 1% glutamine, 1% penicillin and streptomycin, and 22 nM tritiated cortisone was prepared and 90 μL added to each well of the assay plate. This solution (100 μL/well) was transferred to the plate containing the cells. The plate was then incubated in 5% CO2, 95% O2 at 37° C. for 2 hours.
Following this incubation, 50 μL of the assay solution was transferred to each well of a 96-well scintillation microplate. A mixture consisting of anti-mouse YSi SPA beads, pre-mixed with anti-cortisol antibody in assay buffer (50 mM Tris.HCl, pH 7.0; 300 mM NaCl; 1 mM EDTA, 5% glycerol) was prepared and 50 μL added to each well of the scintillation microplate. An adhesive strip was applied to the microplate and the plate gently shaken for at least 2 hours at room temperature, and then spun briefly on a low speed centrifuge. The plate was read on a scintillation counter suitable for 96-well microplates. For the calculation of percentage inhibition, a series of wells were added to the plate that represented the assay maximum and the assay minimum: one set that contained substrate without cells (minimum) and another set that contained substrate and cells without any compound (maximum).
The calculation of median inhibitory concentration (IC50) values for the compounds was performed using GraphPad Prism® software. Dose-response curves for each compound were plotted as fractional inhibition and data fitted to the four parameter logistic equation.

[5] = HEK293, potency groups, read-out: IC50 for 11β-HSD1 (HEK293)
[6] = HEK293 cells transfected with human 11β-HSD1, first value in cell, read-out: IC50 for 11β-HSD1 (HEK293)
[7] = HEK293 cells, value marked * in brackets, read-out: IC50 for 11β-HSD1 (HEK293), (*) average of at least two individual experiments

SMILES | Cmax [1] | Liver Cmax (maximum liver concentration) [1] | % Parent Remaining at 30 min [2] | IC50 [3] | IC50 [4, 5] | IC50 [4, 6] | IC50 [4, 7]
O=C(c1csc(-c2cn[nH]c2)c1)N1C2CCC1CC(O)(c1ccccn1)C2 (stereo not shown) [XX-01] | > 1000 ng/mL | ++ (3001-5000 ++) | +++ (61-100% +++) | > 10000 nM | ≤ 100 nM | 21 nM | 28 nM
O=C(c1csc(-c2cn[nH]c2)c1)N1C2CCC1CC(F)(c1ncccc1Cl)C2 (stereo not shown) [XX-13, [3-(3-Chloro-pyridin-2-yl)-3-fluoro-8-aza-bicyclo[3.2.1]oct-8-yl]-[5-(1H-pyrazol-4-yl)-thiophen-3-yl]-methanone] |  |  | ++ (31-60% ++) | > 10000 nM | ≤ 100 nM | 31 nM | 
N#CC1(c2ccccn2)CC2CCC(C1)N2C(=O)c1csc(-c2cn[nH]c2)c1 (stereo not shown) [XX-18] |  |  | +++ (61-100% +++) | > 10000 nM | ≤ 100 nM | 15 nM | 
O=C(c1csc(-c2cn[nH]c2)c1)N1C2CCC1CC(O)(c1cnccn1)C2 (stereo not shown) [XX-24] | 501 to 1000 ng/mL | ++ (3001-5000 ++) |  | > 10000 nM | ≤ 100 nM | 37 nM | 
O=C(c1csc(-c2cn[nH]c2)c1)N1C2CCC1CC(O)(c1cscn1)C2 (stereo not shown) [XX-36] | > 1000 ng/mL | ++ (3001-5000 ++) | +++ (61-100% +++) |  | ≤ 100 nM |  | 
O=C(c1csc(-c2cn[nH]c2)c1)N1C2CCC1CC(F)(c1cccnn1)C2 (stereo not shown) [XX-43] |  |  | +++ (61-100% +++) | > 10000 nM | ≤ 100 nM | 47 nM | 50 nM
O=C(c1csc(-c2cn[nH]c2)c1)N1CCC(O)(c2ncccc2Cl)CC1 [YY-02] | > 1000 ng/mL | +++ (>5001 +++) | ++ (31-60% ++) | > 10000 nM | ≤ 100 nM | 49 nM | 41 nM
O=C(c1csc(-c2cn[nH]c2)c1)N1CCC(O)(c2ccncc2Cl)CC1 [YY-06] |  |  | ++ (31-60% ++) | > 10000 nM | ≤ 100 nM | 28 nM | 

Source: US9834549B2, “3,3-disubstituted-(8-aza-bicyclo[3.2.1]OCT-8-yl)-[5-(1H-pyrazol-4-yl)-thiophen-3-yl]-methanones as inhibitors of 11 (β)-HSD1” (The University Of Edinburgh, priority 2010, dated 2017)
